From ChEMBL document CHEMBL1125004, “Chemistry and pharmacology of the non-benzodiazepine anxiolytic enciprazine and related compounds” (1990)
Active and inactive are the calls of the source. No cut-off for these calls is given here.

Key:
Mus musculus [1] = experiment: Antiaggressive anxiolytic activity in the electroshock-induced fighting test in mice (po); Range (9.6-16.7); assay type: functional
Monkey [2] = experiment: Tested for ability to maintain self-administration after administration of 0.3 mg/kg in monkey 9079 Range (32-53); assay type: functional, Cercopithecidae
Monkey [3] = experiment: Tested for ability to maintain self-administration after administration of 0.3 mg/kg in monkey 2036 Range (10-12); assay type: functional, Cercopithecidae
Monkey [4] = experiment: Tested for ability to maintain self-administration after administration of 0.03 mg/kg in monkey 2037 Range (63-73); assay type: functional, Cercopithecidae
Monkey [5] = experiment: Tested for ability to maintain self-administration after administration of 0.03 mg/kg in monkey 9083 Range (19-47); assay type: functional, Cercopithecidae
Monkey [6] = experiment: Tested for ability to maintain self-administration after administration of 0.1 mg/kg in monkey 3038 Range (42-58); assay type: functional, Cercopithecidae
Monkey [7] = experiment: Tested for ability to maintain self-administration after administration of 0.03 mg/kg in monkey 3038 Range (0-14); assay type: functional, Cercopithecidae
Monkey [8] = experiment: Tested for ability to maintain self-administration after administration of 0.01 mg/kg in monkey 3017 Range (14-22); assay type: functional, Cercopithecidae
Monkey [9] = experiment: Tested for ability to maintain self-administration after administration of 0.1 mg/kg in monkey 2037; assay type: functional, Cercopithecidae
Monkey [10] = experiment: Tested for ability to maintain self-administration after administration of 0.1 mg/kg in monkey 2036 Range (37-43); assay type: functional, Cercopithecidae
Monkey [11] = experiment: Tested for ability to maintain self-administration after administration of 0.01 mg/kg in monkey 2036 Range (25-28); assay type: functional, Cercopithecidae
Monkey [12] = experiment: Tested for ability to maintain self-administration after administration of 0.03 mg/kg in monkey 3017 Range (26-29); assay type: functional, Cercopithecidae
Monkey [13] = experiment: Tested for ability to maintain self-administration after administration of 0.3 mg/kg in monkey 3038 Range (12-32); assay type: functional, Cercopithecidae
Monkey [14] = experiment: Tested for ability to maintain self-administration after administration of 0.1 mg/kg in monkey 3017 Range ([…]); assay type: functional, Cercopithecidae
Monkey [15] = experiment: Tested for ability to maintain self-administration after administration of 0.03 mg/kg in monkey 2036 Range (30-36); assay type: functional, Cercopithecidae
Monkey [16] = experiment: Tested for ability to maintain self-administration after administration of 0.56 mg/kg in monkey 9079 Range (15-18); assay type: functional, Cercopithecidae
Monkey [17] = experiment: Tested for ability to maintain self-administration after administration of 0.1 mg/kg in monkey 9083 Range (20-32); assay type: functional, Cercopithecidae
Monkey [18] = experiment: Tested for ability to maintain self-administration after administration of 0.3 mg/kg in monkey 3017 Range (28-50); assay type: functional, Cercopithecidae
Monkey [19] = experiment: Tested for ability to maintain self-administration after administration of 0.01 mg/kg in monkey 2037 Range (33-51); assay type: functional, Cercopithecidae
Monkey [20] = experiment: Tested for ability to maintain self-administration after administration of 0.1 mg/kg in monkey 9079 Range (5-20); assay type: functional, Cercopithecidae
Monkey [21] = experiment: Tested for ability to maintain self-administration after administration of 0.3 mg/kg in monkey 9083 Range (14-23); assay type: functional, Cercopithecidae
Rattus norvegicus [22] = experiment: Effect on salivation after oral administration of 20 mg/kg in rat was determined; +' weak effect; assay type: functional, organism-based; parameters: dose 20 mg/kg
Rattus norvegicus [23] = experiment: Effect on jumping after oral administration of 20 mg/kg in rat was determined; +' weak effect; assay type: functional, organism-based; parameters: dose 20 mg/kg
Rattus norvegicus [24] = experiment: Effect on jumping after oral administration of 10 mg/kg in rat was determined; '-' No effect; assay type: functional, organism-based; parameters: dose 10 mg/kg
Rattus norvegicus [25] = experiment: Effect on tremor after oral administration of 10 mg/kg in rat was determined; '-' No effect; assay type: functional, organism-based; parameters: dose 10 mg/kg
Mus musculus [26] = organism: Mus musculus; experiment: animal or person; conditions: po
Mus musculus [27] = organism: Mus musculus; experiment: animal or person
Description: Effect on alcohol induced sleep was determined in ethanol potentiation test; Range (0.41-1.79)

[28] = Ratio of ED50 (rotarod) to that of ED50 (fighting); assay type: functional
Rattus norvegicus [29] = experiment: Effect on piloerection after oral administration of 20 mg/kg in rat was determined; '++' strong effect; assay type: functional, organism-based; parameters: dose 20 mg/kg
Mus musculus [30] = organism: Mus musculus; experiment: animal or person; remark: listed apart in the source
Description: Ataxic activity in mice by rotarod test; Range (2.99-5.35)

Rattus norvegicus [31] = experiment: Effect on diarrhea after oral administration of 10 mg/kg in rat was determined; '+' weak effect; assay type: functional, organism-based; parameters: dose 10 mg/kg
[32] = Ratio of ED50 (ethanol) to that of ED50 (fighting); assay type: functional
Mus musculus [33] = organism: Mus musculus; experiment: animal or person; remark: listed apart in the source
Rattus norvegicus [34] = experiment: Effect on salivation after oral administration of 10 mg/kg in rat was determined; '-' No effect; assay type: functional, organism-based; parameters: dose 10 mg/kg
Rattus norvegicus [35] = experiment: Effect on diarrhea after oral administration of 20 mg/kg in rat was determined; '++' strong effect; assay type: functional, organism-based; parameters: dose 20 mg/kg
Rattus norvegicus [36] = experiment: Effect on restlessness after oral administration of 10 mg/kg in rat was determined; '+' weak effect; assay type: functional, organism-based; parameters: dose 10 mg/kg
Rattus norvegicus [37] = experiment: Effect on tremor after oral administration of 20 mg/kg in rat was determined; +' weak effect; assay type: functional, organism-based; parameters: dose 20 mg/kg
[38] = Ratio of ED50 (hexobarbital) to that of ED50 (fighting); assay type: functional
Rattus norvegicus [39] = experiment: Effect on restlessness after oral administration of 20 mg/kg in rat was determined; +' weak effect; assay type: functional, organism-based; parameters: dose 20 mg/kg
Rattus norvegicus [40] = experiment: Effect on piloerection after oral administration of 10 mg/kg in rat was determined; '+' weak effect; assay type: functional, organism-based; parameters: dose 10 mg/kg
Mus musculus [41] = experiment: Antiaggressive anxiolytic activity in the electroshock-induced fighting test in mice (po); Range (0.58-2.63); assay type: functional
Mus musculus [42] = organism: Mus musculus; experiment: Ataxic activity in mice by rotarod test; Range (86.2-116.6); assay type: functional
Mus musculus [43] = organism: Mus musculus; experiment: Effect on hexobarbital induced sleep was determined in hexobarbital potentiation test; Range (172.3-227.4); assay type: functional
Mus musculus [44] = experiment: Antiaggressive anxiolytic activity in the electroshock-induced fighting test in mice (po); Range (1.03-4.7;); assay type: functional
Mus musculus [45] = organism: Mus musculus; experiment: Ataxic activity in mice by rotarod test; Range (2.2-6.4); assay type: functional
Mus musculus [46] = organism: Mus musculus; experiment: Effect on hexobarbital induced sleep was determined in hexobarbital potentiation test; Range (9.6-17.1); assay type: functional
Mus musculus [47] = experiment: Antiaggressive anxiolytic activity in the electroshock-induced fighting test in mice (po); Range (14.7-24.8); assay type: functional

COc1cc(OCC(O)CN2CCN(c3ccc(C)c(C)c3)CC2)cc(OC)c1OC.Cl (stereo unspecified)
ED50 (Mus musculus [1]): 13 mg/kg

CCN(CC)CCN1C(=O)CN=C(c2ccccc2F)c2cc(Cl)ccc21 [FLURAZEPAM]
Effect (Monkey [2]): 44.7 | Effect (Monkey [3]): 11 | Effect (Monkey [4]): 68 | Effect (Monkey [5]): 29 | Effect (Monkey [6]): 50 | Effect (Monkey [7]): 8 | Effect (Monkey [8]): 17.7 | Effect (Monkey [9]): 33 | Effect (Monkey [10]): 40 | Effect (Monkey [11]): 26 | Effect (Monkey [12]): 27.5 | Effect (Monkey [13]): 22 | Effect (Monkey [14]): 54.7 | Effect (Monkey [15]): 33 | Effect (Monkey [16]): 16.7 | Effect (Monkey [17]): 26.3 | Effect (Monkey [18]): 40.3 | Effect (Monkey [19]): 40.7 | Effect (Monkey [20]): 12.5 | Effect (Monkey [21]): 18.3

CN1C(=O)CN=C(c2ccccc2)c2cc(Cl)ccc21 [DIAZEPAM]
Effect (Rattus norvegicus [22]): Partially active | Effect (Rattus norvegicus [23]): Partially active | Effect (Rattus norvegicus [24]): inactive | Effect (Rattus norvegicus [25]): inactive | ED50 (Mus musculus [26]): 1.4 mg/kg | ED50 (Mus musculus [27]): 0.85 mg/kg | Therapeutic index [28]: 2.9 | Effect (Rattus norvegicus [29]): Active | ED50 (Mus musculus [30]): 4 mg/kg | Effect (Rattus norvegicus [31]): Partially active | Therapeutic index [32]: 0.6 | ED50 (Mus musculus [33]): 3 mg/kg | Effect (Rattus norvegicus [34]): inactive | Effect (Rattus norvegicus [35]): Active | Effect (Rattus norvegicus [36]): Partially active | Effect (Rattus norvegicus [37]): Partially active | Therapeutic index [38]: 2.1 | Effect (Rattus norvegicus [39]): Partially active | Effect (Rattus norvegicus [40]): Partially active

COc1cc(OCC(O)CN2CCN(c3ccccc3O)CC2)cc(OC)c1OC (stereo unspecified)
ED50 (Mus musculus [41]): 1.3 mg/kg | Therapeutic index [28]: 77 | ED50 (Mus musculus [42]): 100 mg/kg | Therapeutic index [38]: 154 | ED50 (Mus musculus [43]): 200 mg/kg

CN1C(=O)CC(=O)N(c2ccccc2)c2cc(Cl)ccc21 [CLOBAZAM]
Therapeutic index [28]: 1.8 | ED50 (Mus musculus [44]): 2.35 mg/kg | ED50 (Mus musculus [45]): 4.1 mg/kg | ED50 (Mus musculus [46]): 13.2 mg/kg | Therapeutic index [38]: 5.6

CCOc1ccccc1N1CCN(CC(O)COc2cc(OC)c(OC)c(OC)c2)CC1.Cl (stereo unspecified)
ED50 (Mus musculus [47]): 19 mg/kg
